From publication PMC12794274, “Therapeutic potential of Sheng-Xian-Tang in doxorubicin-induced chronic heart failure by regulation of phenylalanine metabolism disruption” (Chinese Medicine, 2026)
Values joined by “and” are separate entries in the source; they are usually repeats but may differ in a detail not shown here. Identical values can stand only once.

Experiments:
AML12 cells [1] = experiment: AML12 cell viability (CCK8); assay type: cell-based
Procedure: (§1) Mouse hepatocellular cell lines (AML12), purchased from the Shanghai Cell Bank of Chinese Academy of Sciences (Shanghai, China), were cultured in Dulbecco’s Modified Eagle Medium (DMEM) supplemented with 10% fetal bovine serum (FBS) and 2 mM L-glutamine and 1% pyruvate and maintained at 37 °C in a […], 5% CO2 incubator. Cells were seeded at a density of 5 × 10^5 cells/well in 6-well plates. […] Cells’ survival rate was detected by Cell Counting Kit-8 (CCK8) Reagents (Thermo Scientific, Singapore).

[2] = tested on: PAH activity in AML12 cells; assay type: cell-based
Procedure: (§2) Serum biochemical parameters including brain natriuretic peptide (BNP), creatine kinase (CK), lactate dehydrogenase (LDH), alanine aminotransferase (ALT), and aspartate aminotransferase (AST) were measured using commercial ELISA kits (Nanjing Jiancheng Bioengineering Institute, Nanjing, China) according to the manufacturer’s instructions. Superoxide dismutase (SOD), and malondialdehyde (MDA) levels in liver and heart tissues were measured using assay kits from Aifang Biotechnology (Changsha, China). Phenylalanine and tyrosine concentrations in the cell were determined using an ELISA kit from Abmart (Shanghai, China).
as §1

AML12 cells [3] = assay type: cell-based, mouse; details: AML12 cells, dose-dependent
Procedure: as §1

[4] = target: Phenylalanine hydroxylase (PAH) protein (Homo sapiens, UniProt P00439); experiment: Surface Plasmon Resonance (SPR) analysis, Biacore T200; assay type: binding; details: PAH immobilized on CM5 chip, read-out: dissociation constant (Kd)
Phenylalanine hydroxylase (PAH) protein, sequence (P00439 whole entry): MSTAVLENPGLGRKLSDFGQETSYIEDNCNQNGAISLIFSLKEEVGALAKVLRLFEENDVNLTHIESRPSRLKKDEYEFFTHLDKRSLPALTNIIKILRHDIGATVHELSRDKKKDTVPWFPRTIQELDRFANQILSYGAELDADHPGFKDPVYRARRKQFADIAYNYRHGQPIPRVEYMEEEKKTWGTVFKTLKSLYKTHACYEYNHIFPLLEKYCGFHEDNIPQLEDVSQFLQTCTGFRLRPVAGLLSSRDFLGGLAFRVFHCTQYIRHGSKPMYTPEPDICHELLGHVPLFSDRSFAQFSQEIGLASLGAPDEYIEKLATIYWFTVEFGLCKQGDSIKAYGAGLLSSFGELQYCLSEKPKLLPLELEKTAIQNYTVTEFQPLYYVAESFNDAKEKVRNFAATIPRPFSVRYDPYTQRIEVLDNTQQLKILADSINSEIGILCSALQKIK
Procedure: SPR assays were conducted using a Biacore T200 system (GE Healthcare Life Sciences, USA). Phenylalanine hydroxylase (PAH) protein was immobilized on CM5 sensor chips using an amine-coupling kit (BR100050, GE Healthcare) following standard procedures. […] Samples were injected over reference and PAH-immobilized flow cells at a flow rate of 30 μL/min, with 120 s contact time and 120 s dissociation time. Kinetic parameters were calculated using Biacore T200 evaluation software.

[5] = target: T1, PAH protein in AML12 cells (Mus musculus, UniProt P16331); experiment: Cellular Thermal Shift Assay (CETSA); assay type: cell-based; details: neomangiferin 10 μM, 24 h, 37-72 °C, vs control group
T1 construct: endogenous in cells; host or cells: AML12 mouse hepatocytes
T1 sequence (P16331 1-453): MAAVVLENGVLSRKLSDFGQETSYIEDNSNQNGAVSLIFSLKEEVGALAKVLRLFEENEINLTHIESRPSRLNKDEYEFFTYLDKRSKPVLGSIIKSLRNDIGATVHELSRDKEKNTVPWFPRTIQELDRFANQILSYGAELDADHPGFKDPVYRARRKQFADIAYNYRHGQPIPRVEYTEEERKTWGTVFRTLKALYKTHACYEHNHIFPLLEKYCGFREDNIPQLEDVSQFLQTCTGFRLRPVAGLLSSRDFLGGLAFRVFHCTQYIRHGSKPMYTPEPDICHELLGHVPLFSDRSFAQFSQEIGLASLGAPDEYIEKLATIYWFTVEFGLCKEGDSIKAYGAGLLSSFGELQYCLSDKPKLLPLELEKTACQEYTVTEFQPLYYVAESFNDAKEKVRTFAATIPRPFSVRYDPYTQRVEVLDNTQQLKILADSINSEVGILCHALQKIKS
Procedure: AML12 cells (5 × 10^5 cells/well) in 6-well plates were divided into two groups, with 8 wells in each group. […] After 24 h, 8 samples of cells from each of the two groups were incubated at specific temperatures (37, 42, 47, 52, 57, 62, 67, and 72 °C) for 3 min and each sample was performed for western blotting analysis.

[6] = tested on: DOX-induced chronic heart failure (CHF) rat model; experiment: Echocardiography (LVEF%, LVFS%) in DOX-induced CHF rats; assay type: in vivo; details: experiment II, DOX + Phe 280 mg/kg, BH4 14 mg/kg or SXT 16 g/kg vs DOX group
Procedure: Experiment I, 48 rats were randomly divided into six groups: (1) the CON group; (2) the DOX group; (3) the DOX + enalapril (ENP, positive control, 1.8 mg/kg) group; (4) the DOX + SXT at low dose group (4 g/kg); (5) the DOX + SXT at middle dose group (8 g/kg); and […] the DOX + SXT at high dose group (16 g/kg). Except those rats in the CON group, the remaining rats received DOX at a 2.5 mg/kg per injection to a cumulative dose of 15 mg/kg. The dose of SXT for the low-dose group was set at 4 g/kg, based on the minimum human clinical daily dose (48.5 g, Table S2) converted to an equivalent rat dose using body surface area normalization (48.5 g/70 kg × 6.3 ≈ 4.4 g/kg, rounded to 4 g/kg). To evaluate a clear dose–response relationship, the medium and high doses were established at 8 g/kg and 16 g/kg, respectively, corresponding to 2 fold and 4 fold the low dose. This gradient dosing strategy is consistent with the Technical Guidelines for Pharmacodynamic Studies of Traditional Chinese Medicine and the Technical Guidelines for General Pharmacology Studies of Traditional Chinese Medicine and Natural Drugs, and is further supported by our previous study on the effective dose range of SXT in a rat model of doxorubicin-induced chronic heart failure. Heart function was monitored by echocardiography analysis at day 39, and the CHF model was considered to be successfully established when the left ventricular ejection fraction (LVEF%) values were reduced to 50%. Urinary samples were collected at five time points (0, 10, 20, 30, and 39 d), while fecal samples were collected before the rats were euthanized. Subsequently, the rats were anesthetized, and blood samples and heart and liver tissues were collected. All bio-samples were stored at − 80 °C until analysis.
Experiment II was conducted to specifically confirm the exacerbated cardiac abnormality of phenylalanine in the DOX-induced CHF rats. […] Heart function was detected as in the experiment I.
Echocardiographic (ECG) measurements were performed using M-mode tracings and continuous Doppler with a Vevo 2100 system (Visual Sonics, Toronto, ON, Canada). Rats were anesthetized with isoflurane prior to imaging. Cardiac function indices including left ventricular ejection fraction (LVEF%) and left ventricular fractional shortening (LVFS%) were measured and recorded.

[7] = tested on: cardiac tissues of DOX-induced CHF rats; experiment: Heart histopathology (H&E, Masson) and TUNEL apoptosis detection; assay type: in vivo, rat; details: experiment II, co-treatment vs DOX group
Procedure: Cardiac tissues were fixed in 4% paraformaldehyde, embedded in paraffin, and sectioned at 4–5 μm thickness. Hematoxylin and eosin (H&E) staining was performed to assess histopathological changes, while Masson’s trichrome staining was used to evaluate cardiac fibrosis. Apoptosis in cardiac tissues was detected using a TUNEL assay kit (C1088, Beyotime, Shanghai, China).

DOX-induced CHF rats [8] = experiment: Serum biochemical parameters (BNP, CK, LDH, ALT, AST) by ELISA kits; assay type: in vivo, rat; details: experiment II, co-treatment vs DOX group
Procedure: as §2, with “manufacturer's” for “manufacturer’s”, “Aifang” left out

phenylalanine metabolism = experiment: Phenylalanine and tyrosine levels in rat serum, liver and heart tissues (LC/MS); assay type: in vivo
Procedure: Phenylalanine and tyrosine in the different rat bio-samples were analyzed by LC/MS using an Agilent 1290 Ultra high-performance liquid chromatography (UHPLC) and an Agilent 6460 triple-quadrupole tandem mass spectrometer (QQQ-MS) (Agilent Inc, USA). Data were acquired by using an Agilent Zorbax SB-C18 column (3.0 × 150 mm, 5 μm) as described previously.

[9] = tested on: phenylalanine hydroxylase (PAH); experiment: PAH expression in liver and heart (western blotting, immunofluorescence); assay type: in vivo, rat; details: experiment II; DOX vs CON, co-treatments vs DOX
Procedure: Immunofluorescence staining was performed on tissue sections to detect phenylalanine hydroxylase (PAH), prostaglandin-endoperoxide synthase 2 (PTGS2), and reactive oxygen species (ROS). Primary antibodies against PAH and PTGS2 were used, while ROS was detected using the DCFH-DA probe. Nuclei were counterstained with DAPI. Images were captured using a fluorescence microscope.
Protein was extracted from liver or heart tissue samples (30 mg) using lysis buffer. Total protein concentration was determined using a BCA protein assay kit (Thermo Fisher Scientific, USA). Equal amounts of protein from each sample were separated on 10–12% SDS-PAGE gels and transferred to PVDF membranes. Membranes were blocked with quick blocking buffer for 30 min, then incubated with anti-PAH primary antibody (1:1000 dilution) overnight at 4 °C. After washing, membranes were incubated with a secondary antibody for 1 h at 37 °C. Protein bands were visualized using an Odyssey infrared imaging system (JS-1070, Shanghai Peiqing Science & Technology Co., Ltd, China). Band intensities were quantified using ImageJ software.

DOX-induced CHF rats [10] = experiment: Oxidative stress in heart and liver tissue (SOD, MDA, ROS, PTGS2); assay type: in vivo, rat; details: experiment II
Procedure: Immunofluorescence staining was performed on tissue sections to detect phenylalanine hydroxylase (PAH), prostaglandin-endoperoxide synthase 2 (PTGS2), and reactive oxygen species (ROS). Primary antibodies against PAH and PTGS2 were used, while ROS was detected using the DCFH-DA probe. Nuclei were counterstained with DAPI. Images were captured using a fluorescence microscope. Serum biochemical parameters including brain natriuretic peptide (BNP), creatine kinase (CK), lactate dehydrogenase (LDH), alanine aminotransferase (ALT), and aspartate aminotransferase (AST) were measured using commercial ELISA kits (Nanjing Jiancheng Bioengineering Institute, Nanjing, China) according to the manufacturer's instructions. Superoxide dismutase (SOD), and malondialdehyde (MDA) levels in liver and heart tissues were measured using assay kits from […] Biotechnology (Changsha, China). Phenylalanine and tyrosine concentrations in the cell were determined using an ELISA kit from Abmart (Shanghai, China).

heart tissues = experiment: Transmission electron microscopy of heart tissue; assay type: in vivo, rat; details: experiment II; DOX alone, co-treatments vs DOX
Procedure: Freshly excised heart tissues were immediately fixed in 2.5% glutaraldehyde at 4 °C overnight. After washing with 0.1 M cacodylate trihydrate buffer, samples were post-fixed with 1% osmium tetroxide for 1 h. Tissues were then dehydrated through a graded ethanol series, incubated in acetone, and embedded in epoxy resin. Ultrathin sections were mounted on copper grids and imaged using a Hitachi HT7800 transmission electron microscope (Tokyo, Japan).

H9C2 cells = experiment: Effect of phenylalanine on doxorubicin-induced H9C2 cells; assay type: cell-based; details: DOX 1 µM + Phe 18.5 µM, 24 h
Procedure: H9C2 cells were seeded in 96-well plates at a density of 5 × 10⁴ cells per well (in 100 µL medium) and allowed to adhere for 12 h. The cells were then treated for 24 h with either DOX (1 µM) alone or DOX (1 µM) in combination with Phe (18.5 µM; a concentration derived from the dosing conversion ratio used in prior rat experiments). An untreated group served as the control. Cell viability was determined by measuring the optical density at 450 nm using a microplate reader. The levels of CK, LDH, SOD, and MDA were quantified using commercial assay kits.

[11] = DOX + phenylalanine vs DOX group

## O=c1c2cc(O[C@@H]3O[C@H](CO)[C@@H](O)[C@H](O)[C@H]3O)c(O)cc2oc2cc(O)c([C@@H]3O[C@H](CO)[C@@H](O)[C@H](O)[C@H]3O)c(O)c12 [Neomangiferin]
AML12 cells [1]
  non-cytoxic concentration: 5 to 20 µM
AML12 cells [1]; DOX 1 µM, 24 h, three concentrations of compound
  DOX-induced AML12 cell viability: alleviated
[2]
  PAH activity (enzyme activity assay): significantly increase
[2]; BH4 10 μM, timosaponin B-II, neomangiferin, anemarrhenasaponin I 5, 10, 20 μM, timosaponin AIII 0.1, 0.2, 0.5 μM
  phenylalanine levels in AML12 cells increased by DOX: significantly reduce
AML12 cells [3]
  DOX-induced oxidative stress (SOD, MDA): alleviated
[4]
  Kd: 5.75 µM and < 10 µM
[5]
  thermal stability of PAH protein (CETSA): better thermal stability

## N[C@@H](Cc1ccccc1)C(=O)O [phenylalanine]
[6]
  LVEF and LVFS / DOX-induced cardiac dysfunction: lower
[7]
  DOX-induced cardiac injury and collagen accumulation (H&E and Masson): exacerbated
DOX-induced CHF rats [8]
  DOX-induced increases in serum levels of BNP, CK, LDH, ALT and AST: largely promoted
Phenylalanine metabolism; experiment II, DOX + phenylalanine 280 mg/kg, BH4 14 mg/kg or SXT 16 g/kg
  serum phenylalanine concentration: 100.715 µM
Phenylalanine metabolism; oral phenylalanine, compared to the DOX group
  increase in serum phenylalanine levels: 16.92%
[9]
  PAH expression in heart tissue: further exacerbated
  PAH expression in liver tissue: further exacerbated
DOX-induced CHF rats [10]; [11]
  hepatic and cardiac MDA: marked MDA elevation
  hepatic and cardiac SOD activity: pronounced suppression
DOX-induced CHF rats [10]; co-treatment with DOX
  ROS production and PTGS2 expression in the heart: upregulating
Heart tissues
  mitochondrial ultrastructure of heart (electron microscopy): more pronounced
H9C2 cells
  DOX-induced cardiotoxicity in H9C2 cells (cell viability, SOD, CK, LDH, MDA): exacerbated
